# Measurements from patent US12630492B2, “Cannabinoid derivatives” (CANOPY GROWTH CORPORATION, priority 2019, dated 2026).
# Experiments:
# [1] = target: T1, human CB1 receptor (Homo sapiens, UniProt P21554); test: CB1 radioligand competitive binding assay ([3H]CP 55,940 displacement); settings: [3H]CP 55,940 displacement, membranes of CHO-K1 cells expressing human CB1 receptor; read-out: CB1 IC50
# T1 construct: host or cells: CHO-K1 (Chinese hamster ovary) cells, stably transfected; membranes prepared in house
# [2] = target: T2, human CB2 receptor (Homo sapiens, UniProt P34972); test: CB2 radioligand competitive binding assay ([3H]CP 55,940 displacement); settings: for IC50: [3H]CP 55,940 displacement, membranes of CHO-K1 cells expressing human CB2 receptor, read-out: CB2 IC50; for Selectivity CB2: fold difference between CB1 and CB2 binding, printed in column of receptor with higher affinity, 1.00 in both = same affinity
# T2 construct: host or cells: CHO-K1 (Chinese hamster ovary) cells, stably transfected; membranes prepared in house
# T2 sequence (P34972 whole entry): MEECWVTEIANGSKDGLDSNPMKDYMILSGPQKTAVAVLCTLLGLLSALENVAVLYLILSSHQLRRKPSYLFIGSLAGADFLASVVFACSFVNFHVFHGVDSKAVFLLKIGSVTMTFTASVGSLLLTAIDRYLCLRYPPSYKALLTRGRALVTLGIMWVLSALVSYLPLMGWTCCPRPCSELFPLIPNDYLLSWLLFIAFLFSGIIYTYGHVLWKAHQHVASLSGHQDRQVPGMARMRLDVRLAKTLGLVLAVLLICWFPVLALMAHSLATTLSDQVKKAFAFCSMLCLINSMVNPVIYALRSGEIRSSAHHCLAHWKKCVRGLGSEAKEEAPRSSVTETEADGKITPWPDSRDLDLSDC
# T1 sequence (P21554 whole entry): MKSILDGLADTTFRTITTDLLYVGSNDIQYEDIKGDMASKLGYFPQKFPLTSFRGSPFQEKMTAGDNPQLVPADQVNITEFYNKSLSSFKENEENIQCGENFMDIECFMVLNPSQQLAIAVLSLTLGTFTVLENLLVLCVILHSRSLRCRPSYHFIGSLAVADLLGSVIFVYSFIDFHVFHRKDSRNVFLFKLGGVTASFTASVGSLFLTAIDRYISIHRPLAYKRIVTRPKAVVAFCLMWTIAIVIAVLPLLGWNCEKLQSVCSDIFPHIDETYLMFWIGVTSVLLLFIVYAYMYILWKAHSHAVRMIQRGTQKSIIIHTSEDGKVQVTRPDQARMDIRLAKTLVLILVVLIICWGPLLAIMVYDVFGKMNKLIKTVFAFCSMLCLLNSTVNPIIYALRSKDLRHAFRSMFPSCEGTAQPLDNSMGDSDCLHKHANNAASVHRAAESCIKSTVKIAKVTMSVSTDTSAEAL
SMILES,IC50 [1] [nM],IC50 [2] [nM],Selectivity CB2 [2]
"C=C(C)C1CCC(C)=CC1c1c(O)cc(CCCCC)cc1OCOC1CCCCC1 (stereo not drawn) [Compound 18d, 6-((cyclohexyloxy)methoxy)-5′-methyl-4-pentyl-2′-(prop-1-en-2-yl)-1′,2′,3′,4′-tetrahydro-[1,1′-biphenyl]-2-ol]",1000 to 9990,50 to 990,3.23
"C=C(C)C1CCC(C)=CC1c1c(O)cc(C(C)(C)CCCCCC)cc1OCOCC (stereo not drawn) [Compound 19d, 6-(ethoxymethoxy)-5′-methyl-4-(2-methyloctan-2-yl)-2′-(prop-1-en-2-yl)-1′,2′,3′,4′-tetrahydro-[1,1′-biphenyl]-2-ol]",50 to 990,50 to 990,1.83
"C=C(C)C1CCC(C)=CC1c1c(O)cc(C(C)(C)CCCCCC)cc1OCN(C(=O)OC)c1ccccc1 (stereo not drawn) [Compound 20d, methyl (((6-hydroxy-5′-methyl-4-(2-methyloctan-2-yl)-2′-(prop-1-en-2-yl)-1′,2′,3′,4′-tetrahydro-[1,1′-biphenyl]-2-yl)oxy)methyl)(phenyl)carbamate]",1000 to 9990,50 to 990,1.94
"C=C(C)C1CCC(C)=CC1c1c(O)cc(C(C)(C)CCCCCC)cc1OCOC(=O)C(C)(C)C (stereo not drawn) [Compound 21d, ((6-hydroxy-5′-methyl-4-(2-methyloctan-2-yl)-2′-(prop-1-en-2-yl)-1′,2′,3′,4′-tetrahydro-[1,1′-biphenyl]-2-yl)oxy)methyl pivalate]",1000 to 9990,1000 to 9990,1.25
"C=C(C)[C@@H]1CCC(C)=C[C@H]1c1c(O)cc(C(C)(C)CCCCCC)cc1OCOC(=O)OCC [Compound 22d, ethyl (((6-hydroxy-5′-methyl-4-(2-methyloctan-2-yl)-2′-(prop-1-en-2-yl)-1′,2′,3′,4′-tetrahydro-[1,1′-biphenyl]-2-yl)oxy)methyl) carbonate]",50 to 990,< 50,1.67
"C=C(C)[C@@H]1CCC(C)=C[C@H]1c1c(O)cc(CCC)cc1OCOC(=O)C(C)(C)C [Compound 23d, ((6-hydroxy-5′-methyl-2′-(prop-1-en-2-yl)-4-propyl-1′,2′,3′,4′-tetrahydro-[1,1′-biphenyl]-2-yl)oxy)methyl pivalate]",1000 to 9990,1000 to 9990,2.50
"C=C(C)[C@@H]1CCC(C)=C[C@H]1c1c(O)cc(CCC)cc1OCOC(=O)OCC [Compound 24d, ethyl (((6-hydroxy-5′-methyl-2′-(prop-1-en-2-yl)-4-propyl-1′,2′,3′,4′-tetrahydro-[1,1′-biphenyl]-2-yl)oxy)methyl) carbonate]",1000 to 9990,50 to 990,1.52
